# From ChEMBL document CHEMBL1146461, “Vibsane diterpenoids from the leaves and flowers of Viburnum odoratissimum” (2004)
# Columns and labels:
# NUGC-3 = test: Cytotoxicity against human NUGC3 assessed as survival at 20 ug/ml by MTS method; format: functional; settings: read-out: Survival
# [1] = Cytotoxicity against human HONE1 assessed as survival at 20 ug/ml by MTS method; format: functional; settings: read-out: Survival
Structure (SMILES),viability at 20 µg/mL (NUGC-3) [%],viability at 20 µg/mL [1] [%]
C=C(C)C(CC[C@@]1(C)CC=C(COC(C)=O)C(=O)[C@@H](CC(C)=O)[C@@H]1/C=C/OC(=O)C=C(C)C)OC(C)=O (stereo not given in full),0,0
C=C(C)C(O)CC[C@@]1(C)CC=C(CO)C(=O)[C@H](CC(C)=O)[C@@H]1/C=C/OC(=O)C=C(C)C (stereo not given in full),58,–
CC(=O)C[C@@H]1C(=O)C(COC(C)=O)=CC[C@](C)(C/C=C/C(C)(C)OC(C)=O)[C@H]1/C=C/OC(=O)C=C(C)C,0,0
